Assay [1] addresses 5'-AMP-activated protein kinase catalytic subunit alpha-1 (Homo sapiens) (UniProt Q13131). The assay can be described thus: Inhibition of recombinant full length human AMPKalpha1 assessed as residual activity at 10 uM using AMARAASAAALAR as substrate incubated for 40 mins in presence of [gamma-33ATP] by scintillation counting based radiometry assay relative to control.
For assay [2], the system named is Calcium/calmodulin-dependent protein kinase kinase 2 (Homo sapiens), Q96RR4 [T85S]. Put plainly: Inhibition of recombinant full length human CaMKK2 T85S mutant assessed as residual activity at 10 uM using […] incubated for 40 mins in presence of [gamma-33ATP] by scintillation counting based radiometry assay relative to control.
Assay [3] addresses CDK4/Cyclin D3 (Homo sapiens) (UniProt P11802+P30281). The assay can be described thus: Inhibition of recombinant full length human CDK4/CyclinD3 assessed as residual activity at 10 uM using Rb fragment as substrate incubated for 40 mins in presence of [gamma-33ATP] by scintillation counting based radiometry assay relative to control. It is filed as protein-complex assay.
Assay [4] addresses Cyclin-dependent kinase 13/Cyclin-K (Homo sapiens) (UniProt Q14004+O75909). The assay can be described thus: Inhibition of recombinant full length human CDK13/cyclinK assessed as residual activity at 10 uM using RSRSRSRSRSRSR as substrate incubated for 40 mins in presence of [gamma-33ATP] by scintillation counting based radiometry assay relative to control. It is filed as protein-complex assay.

For assay [5], the target named is Cyclin-dependent kinase-like 1 (Homo sapiens) (UniProt Q00532). Put plainly: Inhibition of recombinant full length human CDKL1 assessed as residual activity at 10 uM using RRRFRPASPLRGP as substrate incubated for 120 mins in presence of [gamma-33ATP] by scintillation counting based radiometry assay relative to control.
The target of assay [6] is Cyclin-dependent kinase-like 3 (Homo sapiens) (UniProt Q8IVW4). The assay can be described thus: Inhibition of recombinant full length human CDKL3 assessed as residual activity at 10 uM using RRRFRPASPLRGPPK as substrate incubated for 120 mins in presence of [gamma-33ATP] by scintillation counting based radiometry assay relative to control.
Assay [7] has as its target Cyclin-dependent kinase-like 4 (Homo sapiens) (UniProt Q5MAI5). The assay can be described thus: Inhibition of recombinant full length human CDKL4 assessed as residual activity at 10 uM in presence of [gamma-33ATP] by scintillation counting based radiometry assay relative to control.
Assay [8] relates to Serine/threonine-protein kinase Chk2 (Homo sapiens), O96017 [R145W]. The assay can be described thus: Inhibition of recombinant human CHK2 R145W mutant (5 to end residues) assessed as residual activity at 10 uM using KKKVSRSGLYRSPSMPENLNRPR as substrate incubated for 40 mins in presence of [gamma-33ATP] by scintillation counting based radiometry assay relative to control.
Assay [9] concerns the target Casein kinase 2 (Homo sapiens) (UniProt P67870+P68400+P19784+Q8NEV1). The assay can be described thus: Inhibition of recombinant human CK2 assessed as residual activity at 10 uM in presence of [gamma-33ATP] by scintillation counting based radiometry assay relative to control. It is filed as protein assay.
For assay [10], the target named is Serine/threonine-protein kinase 35 (Homo sapiens) (UniProt Q8TDR2). The assay can be described thus: Inhibition of recombinant full length human CLIK1 assessed as residual activity at 10 uM using RSRSRSRSRSRS as substrate incubated 40 mins in presence of [gamma-33ATP] by scintillation counting based radiometry assay relative to control.
Assay [11] addresses Dual specificity protein kinase CLK3 (Homo sapiens) (UniProt P49761). The assay can be described thus: Inhibition of recombinant full length human CLK3 assessed as residual activity at 10 uM using ERMRPRKRQGSVRRRV as substrate incubated 40 mins in presence of [gamma-33ATP] by scintillation counting based radiometry assay relative to control.
Assay [12] has as its target Mast/stem cell growth factor receptor Kit (Homo sapiens) (UniProt P10721). Put plainly: Inhibition of recombinant human C-Kit (544 to end residues) using poly(Glu, Tyr) 4:1 as substrate assessed as residual activity at 10 uM in presence of [gamma-33ATP] by scintillation counting based radiometry assay relative to control.
In assay [13] the target is Mitogen-activated protein kinase kinase kinase kinase 1 (Homo sapiens) (UniProt Q92918). The assay can be described thus: Inhibition of human HPK1 (1 to 346 residues) assessed as residual activity at 10 uM using myelin basic protein as substrate after 40 mins by [gamma-33ATP] radiometric assay relative to control.
The species entered for a further assay is Homo sapiens. Put plainly: Inhibition of human MAPK2 assessed as residual activity at 10 uM relative to control.
The target of assay [14] is Dual specificity mitogen-activated protein kinase kinase 2 (Homo sapiens) (UniProt P36507). The assay can be described thus: Inhibition of recombinant human MEK2 assessed as residual activity at 10 uM using MBP as substrate incubated for 40 mins in presence of [gamma-33ATP by scintillation counting based radiometry assay relative to control.
Assay [15] has as its target Myosin light chain kinase 2, skeletal/cardiac muscle (Homo sapiens) (UniProt Q9H1R3). The assay can be described thus: Inhibition of recombinant full length human MYLK2 assessed as residual activity at 10 uM using KKLNRTLSFAEPG as substrate measured after 40 mins in presence of [gamma33P]ATP by scintillation counting based radiometry assay relative to control.
Assay [16] deals with Serine/threonine-protein kinase MARK2 (Homo sapiens) (UniProt Q7KZI7). Put plainly: Inhibition of recombinant full-length human PAR1Balpha assessed as residual activity at 10 uM using KKKVSRSGLYRSPSMPENLNRPR as substrate measured after 40 mins in presence of [gamma33P]ATP by scintillation counting based radiometry assay relative to control.
The target of assay [17] is Protein kinase C delta type (Homo sapiens) (UniProt Q05655). The assay can be described thus: Inhibition of recombinant human PKCdelta (2 to end residues) assessed as residual activity at 10 uM using ERMRPRKRQGSVRR as substrate incubated for 40 mins in presence of [gamma33P]ATP by scintillation counting based radiometry assay relative to control.
For assay [18], the target named is Testis-specific serine/threonine-protein kinase 1 (Homo sapiens) (UniProt Q9BXA7). Put plainly: Inhibition of recombinant full-length human TSSK1 assessed as residual activity at 10 uM using KKKVSRSGLYRSPSMPENLNRPR as substrate incubated for 40 mins in presence of [gamma33P]ATP by scintillation counting based radiometry assay relative to control.
Assay [19] has as its target Wee1-like protein kinase (Homo sapiens) (UniProt P30291). Put plainly: Inhibition of recombinant human WEE1 (214 to end residues) assessed as residual activity at 10 uM using LSNLYHQGKFLQTFCGSPLYRRR as substrate incubated for 40 mins in presence of [gamma33P]ATP by scintillation counting based radiometry assay relative to control.
The species named for a further assay is Mus musculus. The assay can be described thus: Inhibition of recombinant full length mouse PI3K p110/p85 E545K mutant assessed as residual activity at 10 uM using phosphatidylinositol-4, 5-bisphosphate as substrate incubated for 40 mins in presence of [gamma33P]ATP by scintillation counting based radiometry assay relative to control.

This passage reports Activity results from ChEMBL document CHEMBL4334471, “Discovery of 1,8-disubstituted-[1,2,3]triazolo[4,5-c]quinoline derivatives as a new class of Hippo signaling pathway inhibitors” (Bioorg Med Chem Lett, 2019).

Sequence of Dual specificity mitogen-activated protein kinase kinase 2 (Homo sapiens) (P36507 whole entry): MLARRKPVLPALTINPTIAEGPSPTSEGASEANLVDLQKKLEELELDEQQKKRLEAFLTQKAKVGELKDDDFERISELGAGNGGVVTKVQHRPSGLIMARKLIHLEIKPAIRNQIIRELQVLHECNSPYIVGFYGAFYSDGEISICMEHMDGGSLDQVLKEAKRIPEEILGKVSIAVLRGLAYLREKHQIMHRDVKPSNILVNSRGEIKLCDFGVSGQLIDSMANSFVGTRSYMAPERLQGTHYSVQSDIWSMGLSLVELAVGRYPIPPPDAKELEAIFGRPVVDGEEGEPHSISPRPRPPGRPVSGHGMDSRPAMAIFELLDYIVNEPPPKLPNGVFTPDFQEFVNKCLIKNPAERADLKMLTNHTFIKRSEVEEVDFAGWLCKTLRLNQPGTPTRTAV
Sequence of Dual specificity protein kinase CLK3 (Homo sapiens) (P49761 whole entry, looked up): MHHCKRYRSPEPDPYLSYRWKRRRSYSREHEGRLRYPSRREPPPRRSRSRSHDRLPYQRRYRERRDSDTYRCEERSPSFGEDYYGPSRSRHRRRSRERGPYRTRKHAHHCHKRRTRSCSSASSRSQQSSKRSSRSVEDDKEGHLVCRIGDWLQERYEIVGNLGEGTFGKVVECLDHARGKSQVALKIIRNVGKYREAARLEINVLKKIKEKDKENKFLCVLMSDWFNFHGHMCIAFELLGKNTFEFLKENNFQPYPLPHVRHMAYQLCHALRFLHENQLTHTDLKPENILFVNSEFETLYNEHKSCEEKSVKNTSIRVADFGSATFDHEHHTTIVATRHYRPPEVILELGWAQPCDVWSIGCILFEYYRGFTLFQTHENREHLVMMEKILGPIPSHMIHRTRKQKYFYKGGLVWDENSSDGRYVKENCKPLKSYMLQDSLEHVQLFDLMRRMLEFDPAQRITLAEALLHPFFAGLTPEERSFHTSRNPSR
Sequence of Calcium/calmodulin-dependent protein kinase kinase 2 (Homo sapiens), Q96RR4 [T85S] (Q96RR4 whole entry T85S, the tested form may be a part): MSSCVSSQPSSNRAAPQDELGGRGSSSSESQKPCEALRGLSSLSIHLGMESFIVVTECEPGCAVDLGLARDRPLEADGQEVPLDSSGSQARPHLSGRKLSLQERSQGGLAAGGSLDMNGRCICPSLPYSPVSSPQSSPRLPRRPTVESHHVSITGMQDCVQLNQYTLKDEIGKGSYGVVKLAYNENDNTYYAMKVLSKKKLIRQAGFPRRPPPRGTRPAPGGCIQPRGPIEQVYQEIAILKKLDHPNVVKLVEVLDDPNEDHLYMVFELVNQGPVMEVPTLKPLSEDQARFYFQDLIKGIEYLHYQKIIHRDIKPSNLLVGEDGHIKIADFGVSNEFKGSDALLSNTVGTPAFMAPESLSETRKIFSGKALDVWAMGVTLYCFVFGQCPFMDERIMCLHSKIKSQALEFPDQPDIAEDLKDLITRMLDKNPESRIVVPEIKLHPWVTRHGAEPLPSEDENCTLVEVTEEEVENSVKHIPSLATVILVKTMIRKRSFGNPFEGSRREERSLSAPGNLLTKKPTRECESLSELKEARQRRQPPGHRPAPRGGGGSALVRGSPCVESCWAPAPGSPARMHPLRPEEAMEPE
Sequence of Serine/threonine-protein kinase MARK2 (Homo sapiens) (Q7KZI7 whole entry): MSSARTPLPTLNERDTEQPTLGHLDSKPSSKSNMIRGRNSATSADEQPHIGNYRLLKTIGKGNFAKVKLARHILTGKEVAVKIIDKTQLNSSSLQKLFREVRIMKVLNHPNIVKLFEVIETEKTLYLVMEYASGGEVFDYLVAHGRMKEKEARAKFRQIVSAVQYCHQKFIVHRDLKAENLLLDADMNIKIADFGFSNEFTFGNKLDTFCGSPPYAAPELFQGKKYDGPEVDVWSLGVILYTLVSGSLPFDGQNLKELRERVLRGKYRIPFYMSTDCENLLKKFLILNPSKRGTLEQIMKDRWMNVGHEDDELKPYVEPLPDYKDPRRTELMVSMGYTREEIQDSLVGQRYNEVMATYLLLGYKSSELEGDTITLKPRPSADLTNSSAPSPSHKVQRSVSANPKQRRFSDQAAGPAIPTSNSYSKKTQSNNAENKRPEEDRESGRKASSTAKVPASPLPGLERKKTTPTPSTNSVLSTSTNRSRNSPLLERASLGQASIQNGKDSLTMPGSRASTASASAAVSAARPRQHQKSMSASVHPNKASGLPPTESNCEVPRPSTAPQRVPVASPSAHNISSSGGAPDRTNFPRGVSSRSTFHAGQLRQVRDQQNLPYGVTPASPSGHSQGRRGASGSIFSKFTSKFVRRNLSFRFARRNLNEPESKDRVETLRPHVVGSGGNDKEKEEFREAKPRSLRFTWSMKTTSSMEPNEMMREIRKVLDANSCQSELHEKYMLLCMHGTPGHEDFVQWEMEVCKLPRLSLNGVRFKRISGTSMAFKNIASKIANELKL
Sequence of Mitogen-activated protein kinase kinase kinase kinase 1 (Homo sapiens) (Q92918 whole entry, looked up, the tested form may be a part): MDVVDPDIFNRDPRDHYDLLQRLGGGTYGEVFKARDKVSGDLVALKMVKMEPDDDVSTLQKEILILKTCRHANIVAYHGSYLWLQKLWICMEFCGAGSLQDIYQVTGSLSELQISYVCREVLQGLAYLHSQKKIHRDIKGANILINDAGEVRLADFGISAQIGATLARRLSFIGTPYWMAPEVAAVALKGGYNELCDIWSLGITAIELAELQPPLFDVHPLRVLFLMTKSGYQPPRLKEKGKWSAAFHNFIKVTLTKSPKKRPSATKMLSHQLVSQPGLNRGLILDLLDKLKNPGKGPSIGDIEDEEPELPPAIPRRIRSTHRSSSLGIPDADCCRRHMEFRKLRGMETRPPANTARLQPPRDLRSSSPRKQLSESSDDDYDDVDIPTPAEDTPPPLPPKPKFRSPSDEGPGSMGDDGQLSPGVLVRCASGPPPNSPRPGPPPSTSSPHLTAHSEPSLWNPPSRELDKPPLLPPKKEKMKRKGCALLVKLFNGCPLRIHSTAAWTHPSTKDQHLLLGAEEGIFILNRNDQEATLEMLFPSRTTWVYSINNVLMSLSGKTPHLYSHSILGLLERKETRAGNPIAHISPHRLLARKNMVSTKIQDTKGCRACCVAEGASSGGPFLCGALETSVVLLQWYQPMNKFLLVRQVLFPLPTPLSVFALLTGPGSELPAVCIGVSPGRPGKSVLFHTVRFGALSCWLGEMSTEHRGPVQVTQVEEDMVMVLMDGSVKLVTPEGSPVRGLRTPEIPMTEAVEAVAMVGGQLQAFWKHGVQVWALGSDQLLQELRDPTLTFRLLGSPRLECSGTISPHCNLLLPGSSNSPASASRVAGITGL
Sequence of Mast/stem cell growth factor receptor Kit (Homo sapiens) (P10721 whole entry, the tested form may be a part): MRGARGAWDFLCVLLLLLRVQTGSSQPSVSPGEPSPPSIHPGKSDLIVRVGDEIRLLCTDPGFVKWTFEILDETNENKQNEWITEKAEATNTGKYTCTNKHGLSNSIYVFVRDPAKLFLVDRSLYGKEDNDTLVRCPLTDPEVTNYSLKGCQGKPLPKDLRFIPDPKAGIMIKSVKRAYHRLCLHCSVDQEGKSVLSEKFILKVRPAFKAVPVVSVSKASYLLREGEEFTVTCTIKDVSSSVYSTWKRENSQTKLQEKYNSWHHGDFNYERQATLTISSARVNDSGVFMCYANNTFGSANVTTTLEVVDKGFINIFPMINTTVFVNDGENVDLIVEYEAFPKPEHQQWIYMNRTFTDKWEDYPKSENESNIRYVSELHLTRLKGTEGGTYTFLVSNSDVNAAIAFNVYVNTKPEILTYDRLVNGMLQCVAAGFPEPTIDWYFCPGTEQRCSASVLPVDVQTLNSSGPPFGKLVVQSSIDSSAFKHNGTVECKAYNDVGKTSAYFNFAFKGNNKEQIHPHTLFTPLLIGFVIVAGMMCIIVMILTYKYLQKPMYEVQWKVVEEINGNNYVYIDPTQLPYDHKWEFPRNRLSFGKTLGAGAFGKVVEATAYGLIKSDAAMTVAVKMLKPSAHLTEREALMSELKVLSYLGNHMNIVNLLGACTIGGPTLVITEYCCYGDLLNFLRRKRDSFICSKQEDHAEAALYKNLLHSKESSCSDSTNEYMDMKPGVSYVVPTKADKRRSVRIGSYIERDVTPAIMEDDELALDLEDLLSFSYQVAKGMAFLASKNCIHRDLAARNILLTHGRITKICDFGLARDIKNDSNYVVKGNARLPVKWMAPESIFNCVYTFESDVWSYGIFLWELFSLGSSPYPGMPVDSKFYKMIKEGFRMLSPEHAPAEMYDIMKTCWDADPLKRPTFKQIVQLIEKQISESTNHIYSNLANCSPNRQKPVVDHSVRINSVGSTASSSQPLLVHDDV
Sequence of Wee1-like protein kinase (Homo sapiens) (P30291 whole entry, looked up): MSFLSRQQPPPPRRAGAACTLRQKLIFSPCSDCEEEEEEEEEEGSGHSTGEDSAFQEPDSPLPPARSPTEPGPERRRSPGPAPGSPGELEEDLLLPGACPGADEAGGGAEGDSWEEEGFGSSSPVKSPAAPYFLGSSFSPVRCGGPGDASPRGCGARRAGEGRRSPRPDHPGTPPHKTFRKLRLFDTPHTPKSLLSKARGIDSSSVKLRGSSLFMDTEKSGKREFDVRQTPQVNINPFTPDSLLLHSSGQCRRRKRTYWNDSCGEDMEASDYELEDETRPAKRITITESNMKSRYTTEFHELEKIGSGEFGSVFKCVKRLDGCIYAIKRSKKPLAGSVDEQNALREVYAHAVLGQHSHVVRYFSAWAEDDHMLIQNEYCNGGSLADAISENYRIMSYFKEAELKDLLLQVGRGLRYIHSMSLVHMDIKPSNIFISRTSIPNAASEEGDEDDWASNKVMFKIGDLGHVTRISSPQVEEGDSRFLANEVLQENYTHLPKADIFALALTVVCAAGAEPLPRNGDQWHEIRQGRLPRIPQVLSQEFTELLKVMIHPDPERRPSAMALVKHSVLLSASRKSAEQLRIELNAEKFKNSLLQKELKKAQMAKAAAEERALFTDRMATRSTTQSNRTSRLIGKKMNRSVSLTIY

As to `C[C@@H](c1ccccc1)n1nnc2cnc3ccc(-c4cnc5[nH]ccc5c4)cc3c21`, the Activity in assay [1] came out at 45%; in [2], 79%; in assay [3], 74%; in [4] it was 84%; in [5] it was 79%; in assay [6], 104%. The Activity was 96% in assay [7]; 81% in [8]; 82% in [9]; 75% in [10]; 66% in assay [11]; 103% in assay [12]. The Activity was found to be 84% in assay [13]; 93% in the assay filed under Homo sapiens; 92% in assay [14]; 70% in assay [15]; 85% in [16]; 91% in [17]. Besides, the Activity in [18] is 74%; in [19], 101%; in the assay filed under Mus musculus it was 1%.
